The text below walks through data of patent US20250064789A1, “KETOAMIDE DERIVATIVES AND PHARMACEUTICAL USES THEREOF” (priority 2022, published 2025).

As usually defined, the IC50 is the concentration that inhibits the measured activity by half. By CC50 is commonly meant the concentration at which the toxic effect on the cells reaches its halfway point. As a reminder, the AUC(0-inf) is total exposure, with the tail of the curve extrapolated. For orientation: AUC(0-t) means exposure summed from dosing to a finite time, without extrapolation to infinity. By Cmax is commonly meant the highest concentration seen after dosing. A word on the MRT inf: it is the average time that molecules of a dose stay in the body. For orientation: Tmax means the time from dosing to the highest level.

Data set [1] has as its target recombinant SARS-CoV-2 M^pro (Severe acute respiratory syndrome coronavirus 2 (2019-nCoV) (SARS-CoV-2), UniProt P0DTD1). Put plainly: Inhibition of SARS-CoV-2 M^pro enzyme activity (fluorescent substrate assay). It counts as biochemical. The settings on record: inhibition of SARS-CoV-2 M^pro enzyme activity; values in nM; read-out: IC50.
A short description of data set [2]: Cytotoxic assay against Vero E6 cells (MTT, 72 h). Particulars: African green monkey. The class given is cell-based. Here is the method: The cytotoxicity assessment of compounds was performed against Vero E6 cells. The specific experimental procedures: Vero E6 cells were seeded into a 96-well plate at a cell density of 2×10^4 cells/well, with 100 μL/well, and then incubated overnight at 37° C. in a 5% CO2 incubator. The next day, 100 μL of drug-containing medium was added to each well. The compound was diluted in a 2-fold serial dilution with a top concentration of […], for a total of 6 gradients. Three repeated wells were set for each concentration, and negative controls and blank controls without drugs were included for each experiment. […] All experimental data were analyzed using GraphPad Prism software.

A short description of data set [3]: Cytotoxic assay against human BEAS-2B cells (MTT, 72 h). It counts as cell-based. Particulars: human. Here is the method:
(§1) BEAS-2B cells (normal human bronchial epithelial cells) and HUVEC cells (human umbilical vein endothelial cells) were used to evaluate the cytotoxicity of compounds against human-derived cells. The detailed experimental procedures: BEAS-2B cells or HUVEC cells were seeded into a 96-well plate at a cell density of 2×10^4 cells/well, that is, 100 µL/well, and then incubated overnight at 37° C. in a 5% CO2 incubator. The next day, 100 μL of drug-containing medium was added to each well. The compound was diluted in a 2-fold serial dilution with a top concentration of […], for a total of 6 gradients. Three repeated wells were set for each concentration, and negative controls and blank controls without drugs were included for each experiment. […] All experimental data were analyzed using GraphPad Prism software.

Data set [4] in a line: Cytotoxic assay against HUVEC cells (MTT, 72 h). It counts as cell-based, human. Particulars: human. On the procedure:
as §1

A short description of data set [5]: Metabolic stability using human liver microsomes. The class given is in vitro ADME. Particulars: pH 7.4, NADPH, 37° C., read-out: Human liver microsomes T1/2. (In general: Microsomes from liver hold many membrane-bound enzymes, among them those of drug oxidation.)
A further data set concerns the target human thrombin (Homo sapiens (Human), UniProt P00734). Put plainly: Human protease biochemical activity assay: Thrombin activity testing kit. The settings on record: read-out: Thrombin IC50. Here is the method:
(§2) The biochemical activity of compounds against human proteases was determined using Cathepsin K inhibitor screening kit (K150-100), Cathepsin B inhibitor screening kit (K147-100), Thrombin activity testing kit (K373-100), Caspase-2 inhibitor screening kit (K152-100), and Cathepsin D inhibitor screening kit (K148-100) according to the instructions of the kits (Biovision, USA). All experiments were carried out in triplicate. All experimental data were analyzed using GraphPad Prism software.

In a further data set the target is human cathepsin K (Homo sapiens (Human), UniProt P43235). Put plainly: Human protease biochemical activity assay: Cathepsin K inhibitor screening kit. Particulars: read-out: Cathepsin K IC50. Here is the method: as §2
Another data set has as its target human cathepsin B (Homo sapiens (Human), UniProt P07858). Put plainly: Human protease biochemical activity assay: Cathepsin B inhibitor screening kit. Here is the method:
as §2

The target in another data set is human caspase 2 (Homo sapiens (Human), UniProt P42575). Put plainly: Human protease biochemical activity assay: Caspase-2 inhibitor screening kit. Particulars: read-out: Caspase-2 IC50. On the procedure:
as §2

For another data set, the target named is human cathepsin D (Homo sapiens (Human), UniProt P07339). Put plainly: Human protease biochemical activity assay: Cathepsin D inhibitor screening kit. On the procedure: as §2
A short description of a further data set: in vivo. Particulars: male, Sprague-Dawley, rat, po, 10 mg/kg.

The structures appear in SMILES notation.

human cathepsin D, sequence (P07339 65-412): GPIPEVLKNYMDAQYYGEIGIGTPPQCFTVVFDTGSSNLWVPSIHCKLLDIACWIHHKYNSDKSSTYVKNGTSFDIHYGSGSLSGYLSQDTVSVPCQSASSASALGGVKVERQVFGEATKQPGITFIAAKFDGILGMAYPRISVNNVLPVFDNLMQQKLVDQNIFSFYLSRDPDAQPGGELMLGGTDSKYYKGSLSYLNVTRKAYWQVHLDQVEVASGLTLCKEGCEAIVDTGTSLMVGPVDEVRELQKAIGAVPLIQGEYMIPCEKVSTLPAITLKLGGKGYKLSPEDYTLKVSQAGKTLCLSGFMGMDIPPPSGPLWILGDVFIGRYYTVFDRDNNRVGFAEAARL
human cathepsin K, sequence (P43235 115-329): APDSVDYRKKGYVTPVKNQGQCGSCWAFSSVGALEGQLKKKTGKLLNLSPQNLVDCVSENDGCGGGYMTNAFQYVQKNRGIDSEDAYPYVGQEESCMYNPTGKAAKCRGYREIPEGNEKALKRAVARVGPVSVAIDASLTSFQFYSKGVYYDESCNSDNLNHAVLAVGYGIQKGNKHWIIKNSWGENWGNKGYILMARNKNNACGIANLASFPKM
human caspase 2, sequence (P42575 170-325): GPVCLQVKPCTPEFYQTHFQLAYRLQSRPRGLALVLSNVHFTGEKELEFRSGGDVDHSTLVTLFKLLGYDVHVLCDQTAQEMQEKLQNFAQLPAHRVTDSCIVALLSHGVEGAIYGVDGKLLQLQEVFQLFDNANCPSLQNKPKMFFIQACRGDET
human caspase 2, sequence (P42575 348-452): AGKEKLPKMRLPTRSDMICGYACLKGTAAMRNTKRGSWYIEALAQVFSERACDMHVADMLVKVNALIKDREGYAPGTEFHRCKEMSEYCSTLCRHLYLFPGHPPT

For the compound `O=C(CC1CC(F)(F)C1)NCC(=O)N[C@H](Cc1ccccc1)C(=O)C(=O)NCc1nccs1` [Compound 387], the IC50 in [1] was found to be 12.5 ± 1.2 nM. The CC50 at 72 h in data set [2], in data set [3] and in data set [4] was above 500 µM each time.
As to `O=C(NCc1nccs1)C(=O)[C@@H](Cc1ccccc1)NC(=O)[C@H]1CC(F)(F)CN1C(=O)C1CCC(F)(F)CC1` [Compound 402], in data set [1], the IC50 came to 19.9 ± 0.3 nM. For the same compound, the CC50 at 72 h in data set [2] was 410 µM; in data set [3], above 500 µM; in data set [4], 327 µM.
With `C[C@@H](NC(=O)C1CCC(F)(F)C1)C(=O)N[C@H](Cc1ccccc1)C(=O)C(=O)NCc1cscn1` (stereo partly shown) [Compound 415], the IC50 in data set [1] was 19.4 ± 2.2 nM. The CC50 at 72 h in data set [2] was above 500 µM; in [3], above 500 µM; in data set [4], 468 µM.
Take `C[C@@H](NC(=O)CC1CC1(F)F)C(=O)N[C@H](Cc1ccccc1)C(=O)C(=O)NCc1cscn1` (stereo partly shown) [Compound 417]: the half-maximal inhibitory concentration (IC50) in data set [1] was 22.1 ± 3 nM; at human thrombin, above 100 µM; at human cathepsin K it was above 100 µM; against human cathepsin B, above 100 µM; on human caspase 2, above 100 µM; on human cathepsin D, above 100 µM. Moreover, the CC50 at 72 h in data set [2], in [3] and in [4] was above 500 µM in each case. The half-life at 1 µM in data set [5] turned out to be 0.534 h. In addition, the AUC(0-inf) in the data set “in vivo” was found to be 5070 ± 2290 ng·h/mL. In the data set “in vivo”, this compound came in with an AUC(0-t) of 4890 ± 2320 ng·h/mL. The compound also came in with a Cmax in the data set “in vivo” of 441 ± 225 ng/mL. The compound also had a mean residence time MRT inf in “in vivo” of 6.55 ± 0.39 h. Besides, the Tmax in the data set “in vivo” was 3.33 ± 1.15 h. This compound showed a half-life in “in vivo” of 5.07 ± 1.78 h.
Take `C[C@@H](NC(=O)CC1CC(F)(F)C1)C(=O)N[C@H](Cc1ccccc1)C(=O)C(=O)NCc1cscn1` [Compound 418]: the half-maximal inhibitory concentration (IC50) in data set [1] was found to be 10.6 ± 0.3 nM. For the same compound, the CC50 at 72 h in [2], in [3] and in data set [4] was above 500 µM throughout.
Turning to `O=C(CC1CC(F)(F)C1)NCC(=O)N[C@H](Cc1ccccc1)C(=O)C(=O)NCc1cscn1` [Compound 423], the IC50 in data set [1] worked out at 13.2 ± 0.2 nM. For the same compound, the CC50 at 72 h in [2], in data set [3] and in [4] was above 500 µM each time.
On to `CC(C)(C)[C@H](NC(=O)C(F)(F)F)C(=O)N1C[C@H]2[C@@H]([C@H]1C(=O)N[C@H](C#N)C[C@@H]1CCNC1=O)C2(C)C` [PF-07321332, Nirmatrelvir, reference compound], for which the half-life at 1 µM in data set [5] amounted to 0.353 h.
